Results from ChEMBL document CHEMBL1148607, “A minimalist design approach to antimicrobial agents based on a thionin template” (J Med Chem, 2006).
Non-standard residues stand in square brackets, D forms with d. Residues, ends and D or L forms follow the SMILES beside them. GABA = NCCCC(=O)O

Columns and labels:
Assay type in all cases: functional, organism-based
Botrytis cinerea = experiment: Antifungal activity against Botrytis cinerea
[1] = tested on: Clavibacter michiganensis; experiment: Antibacterial activity against Clavibacter michiganensis
Xanthomonas campestris = experiment: Antibacterial activity against Xanthomonas campestris
[2] = tested on: Plectosphaerella cucumerina; experiment: Antifungal activity against Plectosphaerella cucumerina
Sinorhizobium meliloti = experiment: Antibacterial activity against Rhizobium meliloti

Molecule | EC50 (Botrytis cinerea) [µM] | EC50 [1] [µM] | EC50 (Xanthomonas campestris) [µM] | EC50 [2] [µM] | EC50 (Sinorhizobium meliloti) [µM]
CC[C@H](C)[C@H](NC(=O)[C@H](CCC(=O)O)NC(=O)[C@@H](N)CCCN=C(N)N)C(=O)NCCCC(=O)N[C@@H](C)C(=O)N[C@@H](CCCCN)C(=O)N[C@@H](CCCCN)C(=O)NCCCC(=O)N[C@@H](CCCN=C(N)N)C(=O)O (H-REI[GABA]AKK[GABA]R-OH) | 4.1 | 5.13 | > 50 | 15.7 | > 50
H-THRTRPALAARGASNCYSTYRASNVALCYSARGLEPRARGGLIIECYSALALYSLYSCYS-OH (cysteines drawn unpaired) | 0.08 | 0.03 | 1.03 | 0.16 | 2.07
CC(C)C[C@H](NC(=O)[C@H](CCCN=C(N)N)NC(=O)CCCNC(=O)[C@@H](NC(=O)[C@H](CC(N)=O)NC(=O)[C@H](Cc1ccc(O)cc1)NC(=O)CCCNC(=O)[C@H](CC(N)=O)NC(=O)[C@H](CCCN=C(N)N)NC(=O)[C@H](C)NC(=O)[C@H](Cc1c[nH]c2ccccc12)NC(=O)[C@@H](N)[C@@H](C)O)C(C)C)C(=O)N1CCC[C@H]1C(=O)O (H-TWARN[GABA]YNV[GABA]RLP-OH) | 1.6 | 3.27 | > 50 | 3.97 | > 50
